{"source": "patent US12440496B2", "about": "“Natriuretic peptide receptor a agonists useful for the treatment of cardiometabolic diseases, kidney disease and diabetes” (Merck Sharp & Dohme LLC, priority 2019, dated 2025)", "note": "Where a name gives a salt, the structure may show the parent alone."}
{"target": "T1, hNPRA (Homo sapiens, UniProt P16066)", "T1 construct": "expressed in transfected cells", "T1 sequence (P16066 33-1061)": "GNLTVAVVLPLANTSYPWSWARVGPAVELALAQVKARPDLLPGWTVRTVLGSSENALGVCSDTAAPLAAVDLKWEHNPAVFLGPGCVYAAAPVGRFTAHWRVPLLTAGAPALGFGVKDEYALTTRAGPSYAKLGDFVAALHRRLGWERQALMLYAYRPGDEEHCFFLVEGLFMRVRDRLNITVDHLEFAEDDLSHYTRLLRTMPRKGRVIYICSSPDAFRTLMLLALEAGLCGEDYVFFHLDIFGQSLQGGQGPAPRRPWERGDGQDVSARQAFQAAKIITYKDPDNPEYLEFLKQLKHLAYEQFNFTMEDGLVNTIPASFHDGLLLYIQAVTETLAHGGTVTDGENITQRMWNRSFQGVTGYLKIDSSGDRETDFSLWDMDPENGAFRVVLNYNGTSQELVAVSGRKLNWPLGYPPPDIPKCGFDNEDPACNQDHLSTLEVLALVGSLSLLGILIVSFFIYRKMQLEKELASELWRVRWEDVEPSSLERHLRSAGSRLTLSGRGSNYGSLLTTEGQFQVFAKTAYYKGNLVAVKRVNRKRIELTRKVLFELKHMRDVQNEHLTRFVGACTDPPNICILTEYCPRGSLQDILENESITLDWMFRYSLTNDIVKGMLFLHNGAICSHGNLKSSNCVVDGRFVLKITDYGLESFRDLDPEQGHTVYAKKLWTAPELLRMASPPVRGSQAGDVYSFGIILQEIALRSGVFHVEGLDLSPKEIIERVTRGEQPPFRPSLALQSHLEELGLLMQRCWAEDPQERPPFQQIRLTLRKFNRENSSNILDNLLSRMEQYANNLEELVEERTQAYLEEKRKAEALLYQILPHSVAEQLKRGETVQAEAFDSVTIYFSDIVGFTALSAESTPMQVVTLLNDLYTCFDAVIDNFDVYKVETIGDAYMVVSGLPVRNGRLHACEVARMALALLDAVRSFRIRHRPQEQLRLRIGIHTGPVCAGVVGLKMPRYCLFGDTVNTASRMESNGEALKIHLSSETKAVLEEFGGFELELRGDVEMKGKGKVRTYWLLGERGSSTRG", "assay": "NPRA Functional Cell Assay (cGMP HTRF, NPRA HEK JumpIn stable cells)", "format": "cell-based", "details": "cGMP production, 1 hour at 37° C., 10-point dose response", "text": "NPRA Functional Cell Assay\nAssay Buffer components HEPES and Opti-MEM® I Reduced-Serum with Glutamine (no phenol red) were from Gibco/Invitrogen (Thermo Fisher Scientific, Waltham, MA USA). 3-Isobutyl-1-methylxanthine (IBMX) and 4-(3-Butoxy-4-methoxybenzyl) imidazolidin-2-one (RO20) were obtained from Sigma-Aldrich (St. Louis, MO, USA). DPBS (Dulbecco's phosphate-buffered saline) without Ca2+ and Mg2+ was purchased from GE Healthcare Bio-Sciences (Pittsburgh, PA, USA). 384 well white Optiplates were from Perkin Elmer (Atlantic Highlands, NJ, USA). Human ANP (Atrial Natriuretic Peptide) (1-28) was purchased from Sigma-Aldrich (Catalog #A1663) and rat ANP (1-28) from Bachem (Torrance, CA, USA) (Catalog #H2100). Human-BNP (Human-Brain Natriuretic Peptide) (1-32 AA) was purchased from American Peptide Company (Sunnyvale, CA, USA) (product No. 14-1-90). cGMP kits were purchased from Cisbio. The assay ready frozen (ARF) Human/rat/dog NPRA HEK JumpIn Stable frozen cells (low passage number 5-11) were prepared in-house.\nTest compounds were titrated in DMSO in a 10-point dose response in a separate step followed by a 100-fold dilution into the reaction. Positive response for each assay was determined using 10 nM rat-ANP peptide (rat cells) or 50 nM h-ANP peptide (human and dog cells).\nCells were thawed, washed with DPBS and resuspended in assay buffer (Opti-MEM+Glutamine, phenol red free media, 10 mM HEPES, 100 uM IBMX and 100 uM RO20) that was warmed to 37° C. Cells were then transferred to microplates via a Microplate Combi dispenser at a density of 1500, 400 and 1200 cells/well for human, rat and dog cells respectively, followed by acoustic transfer (Echo) of compound.\n(§1) Compounds and cells were incubated at 37° C. with 5% CO2 for 1 hour, after which the cells were lysed and cGMP was captured using a CisBio cGMP HTRF assay kit. The TRF signal was measured with an Envision plate reader (emission set to 615 and 665 nm) after 1 hour incubation at ambient temperature. The TRF signal was converted to [cGMP] through the use of a cGMP calibration curve on each microplate. EC50's were generated from the resulting dose response curves by use of a 4 parameter logistic algorithm.\nAssay Buffer components HEPES and Opti-MEM® I Reduced-Serum with Glutamine (no phenol red) were from Gibco/Invitrogen. 3-Isobutyl-1-methylxanthine (IBMX) and 4-(3-Butoxy-4-methoxybenzyl) imidazolidin-2-one (RO20) were obtained from Sigma. DPBS (Dulbecco's phosphate-buffered saline) without Ca2+ and Mg2+ was purchased from GE Healthcare Bio-Sciences (Pittsburgh, PA, USA). 384 well white Optiplates were from Perkin Elmer (Atlantic Highlands, NJ, USA). Human ANP (1-28) was purchased from Sigma (A1663) and rat ANP (1-28) from Bachem (H2100). Human-BNP (1-32 AA) was purchased from American Peptide Company (Sunnyvale, CA, USA) (product No. 14-1-90). cGMP kits were purchased from Cisbio (Bedford, MA, USA). The assay ready frozen (ARF) Human/rat/dog NPRA HEK JumpIn Stable frozen cells (low passage number 5-11) were prepared in-house.\nas §1, with “Envision®” for “Envision”, “reader (Perkin Elmer)” for “reader”\nhNPRA EC50 (nM) were determined for the compounds of Example 1 through Example 273 and are reported in the Experimental section of this application.", "units": {"EC50": "µM"}}
{"compound": "CC(C)(C)[C@H]1CCc2nc3sc(C(=O)N[C@H](CCNC4CCOCC4)c4ccc(-c5ccc(=O)[nH]c5)cc4)nc3cc2C1", "note": "(racemic) [Example 75, rac-(7S)-7-tert-butyl-N-[rac-(1R)-1-[4-(6-oxo-1H-pyridin-3-yl)phenyl]-3-(tetrahydropyran-4-ylamino)propyl]-5,6,7,8-tetrahydrothiazolo[5,4-b]quinoline-2-carboxamide]", "EC50": 0.634}
{"compound": "CC(C)(C)[C@H]1CCc2nc3sc(C(=O)N[C@H](CCN4CCC(O)CC4)c4ccc(-c5ccnnc5)cc4)nc3cc2C1", "note": "(racemic) [Example 162, rac-(7S)-7-tert-butyl-N-[rac-(1R)-3-(4-hydroxy-1-piperidyl)-1-(4-pyridazin-4-ylphenyl)propyl]-5,6,7,8-tetrahydrothiazolo[5,4-b]quinoline-2-carboxamide]", "EC50": 0.198}
{"compound": "CN(C)CC[C@@H](NC(=O)c1nc2cc3c(nc2s1)CC[C@H](C(C)(C)C)C3)c1cccc(C(=O)N2CCOCC2)c1", "note": "(racemic) [Example 96, rac-(7S)-7-tert-butyl-N-[rac-(1R)-3-(dimethylamino)-1-[3-(morpholine-4-carbonyl)phenyl]propyl]-5,6,7,8-tetrahydrothiazolo[5,4-b] quinoline-2-carboxamide]", "EC50": 1.02}
{"compound": "CC(C)(C)[C@H]1CCc2nc3sc(C(=O)N[C@H](CCNC4CCCC4)c4ccc(-c5ccc(=O)[nH]c5)cc4)cc3cc2C1", "note": "(racemic) [Example 52, cyclopentyl-[rac-(3R)-3-[4-(6-oxo-1H-pyridin-3-yl)phenyl]-3-[[rac-(6S)-6-tert-butyl-5,6,7,8-tetrahydrothieno[2,3-b]quinoline-2-carbonyl]amino]propyl] ammonium;formate]", "EC50": 0.729}
{"compound": "O=C(O)C(F)(F)F.[2H]C([2H])([2H])N(CC[C@@H](NC(=O)c1nc2cc3c(nc2s1)CC[C@H](C(C)(C)C)C3)c1ccc(NS(=O)(=O)N(C)C)nc1)C([2H])([2H])[2H]", "note": "(racemic) [Example 207, [rac-(3R)-3-[6-(dimethylsulfamoylamino)-3-pyridyl]-3-[[rac-(7S)-7-tert-butyl-5,6,7,8-tetrahydrothiazolo[5,4-b]quinoline-2-carbonyl]amino]propyl]-bis(trideuteriomethyl)ammonium; 2,2,2-trifluoroacetate]", "EC50": 0.679}
{"compound": "CC(C)(C)[C@H]1CCc2nc3sc(C(=O)N[C@H](CCN4CC[C@H](C(=O)O)[C@@H](F)C4)c4ccc(-c5cnc(O)c(F)c5)cc4)nc3cc2C1", "note": "(racemic) [Example 203, rac-(3R,4R)-3-fluoro-1-[rac-(3R)-3-[4-(5-fluoro-6-hydroxy-3-pyridyl)phenyl]-3-[[rac-(7S)-7-tert-butyl-5,6,7,8-tetrahydrothiazolo[5,4-b]quinoline-2-carbonyl]amino]propyl]piperidin-1-ium-4-carboxylic acid; formate]", "EC50": 1.19}
{"compound": "CC(C)(C)[C@H]1CCc2nc3sc(C(=O)N[C@H](CCN[C@H]4C[C@@H](CO)[C@H](O)[C@@H]4O)c4ccc(-c5ccc(=O)[nH]c5)cc4)cc3cc2C1", "note": "(racemic) [Example 26, [rac-(1S,2R,3S,4S)-2,3-dihydroxy-4-(hydroxymethyl)cyclopentyl]-[rac-(3R)-3-[4-(6-oxo-1H-pyridin-3-yl)phenyl]-3-[rac-(6S)-6-tert-butyl-5,6,7,8-tetrahydrothieno[2,3-b]quinoline-2-carbonyl]amino]propyl] ammonium;formate]", "EC50": 0.386}
{"compound": "CC(C)(C)[C@H]1CCc2nc3sc(C(=O)N[C@H](CCN4CCC(F)CC4)c4ccccc4)cc3cc2C1", "note": "[Example 252, (6S)-6-tert-butyl-N-[(1R)-3-(4-fluoropiperidin-1-yl)-1-phenylpropyl]-5,6,7,8-tetrahydrothieno[2,3-b]quinoline-2-carboxamide]", "EC50": 6.3}
{"compound": "CC(C)(C)[C@H]1CCc2nc3sc(C(=O)N[C@H](CCN4CCC4)c4cccc(NS(C)(=O)=O)c4)cc3cc2C1", "note": "(racemic) [Example 20, ammonium; methylsulfonyl-[3-[rac-(1R)-3-(azetidin-1-yl)-1-[[rac-(6S)-6-tert-butyl-5,6,7,8-tetrahydrothieno[2,3-b]quinoline-2-carbonyl]amino]propyl]phenyl]azanide]", "EC50": 1.65}
{"compound": "CC(C)(C)[C@H]1CCc2nc3sc(C(=O)N[C@H](CCN4CCCCC4)c4ccc(-c5cn[nH]c5)cc4)cc3cc2C1", "note": "(racemic) [Example 5, rac-(6S)-6-tert-butyl-N-[rac-(1R)-3-(1-piperidy])-1-[4-(1H-pyrazol-4-yl)phenyl]propyl]-5,6,7,8-tetrahydrothieno[2,3-b]quinoline-2-carboxamide]", "EC50": 0.777}
{"compound": "CC(C)(C)[C@H]1CCc2nc3sc(C(=O)N[C@H](CCN4CCOCC4)c4ccc(C(=O)N[C@H]5CNC[C@@H]5O)cc4)cc3cc2C1", "note": "(racemic) [Example 72]", "EC50": 0.987}
{"compound": "CC(C)(C)[C@H]1CCc2nc3sc(C(=O)N[C@H](CCN4CCC(O)CC4)c4ccc(Oc5ccc(O)cc5)nc4)nc3cc2C1", "note": "(racemic) [Example 194, ammonium; 4-[[5-[rac-(1R)-3-(4-hydroxy-1-piperidyl)-1-[[rac-(7S)-7-tert-butyl-5,6,7,8-tetrahydrothiazolo[5,4-b]quinoline-2-carbonyl]amino]propyl]-2-pyridyl]oxy]phenolate]", "EC50": 1.5}
{"compound": "CN(C)S(=O)(=O)Nc1ccc([C@@H](CCN2CC[C@@H](O)C2)NC(=O)c2nc3cc4c(nc3s2)CC[C@H](C(C)(C)C)C4)cn1", "note": "(racemic) [Example 211, rac-(7S)-7-tert-butyl-N-[rac-(1R)-1-[6-(dimethylsulfamoylamino)-3-pyridyl]-3-[rac-(3R)-3-hydroxypyrrolidin-1-ium-1-yl]propyl]-5,6,7,8-tetrahydrothiazolo[5,4-b]quinoline-2-carboxamide; 2,2,2-trifluoroacetate]", "EC50": 0.764}
{"compound": "CC(C)(C)[C@H]1CCc2nc3sc(C(=O)N[C@H](CCN4CCCCC4)c4ccc(-c5ccc(O)nc5)cc4)cc3cc2C1", "note": "(racemic) [Example 1, ammonium;5-[4-[rac-(1R)-3-(1-piperidyl)-1-[[rac-(6S)-6-tert-butyl-5,6,7,8-tetrahydrothieno[2,3-b]quinoline-2-carbonyl]amino]propyl]phenyl]yridine-2-olate]", "EC50": 0.233}
